Measured values taken from publication PMC6979384, “Characterization of the plant homeodomain (PHD) reader family for their histone tail interactions” (Epigenetics & Chromatin, 2020).

Assays:
Test in all cases: Histone peptide microarray
Assay type in all cases: binding, human
PHF23 = settings: sheet "Array Heatmap"; GST-tagged PHF23; arrays performed twice, total replicate number n = 4
Method in brief: (§1)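 Readout is array binding signal, reported as the mean and standard deviation over four replicates. Each purified GST-fused PHD domain was incubated at 0.5 μM with a library of 293 modified histone peptides.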

PHF21A = settings: sheet "Array Heatmap"; GST-tagged PHF21A; arrays performed twice, total replicate number n = 4
Method in brief: as §1

KDM5B (3) = settings: sheet "Array Heatmap"; GST-tagged KDM5B (3); arrays performed twice, total replicate number n = 4
Method in brief: as §1

TAF3 = settings: sheet "Array Heatmap"; GST-tagged TAF3; arrays performed twice, total replicate number n = 4
Method in brief: as §1

DIDO1 = settings: sheet "Array Heatmap"; GST-tagged DIDO1; arrays performed twice, total replicate number n = 4
Method in brief: as §1

ING1 = settings: sheet "Array Heatmap"; GST-tagged ING1; arrays performed twice, total replicate number n = 4
Method in brief: as §1

ING4 = settings: sheet "Array Heatmap"; GST-tagged ING4; arrays performed twice, total replicate number n = 4
Method in brief: as §1

KDM5B (1) = settings: sheet "Array Heatmap"; GST-tagged KDM5B (1); arrays performed twice, total replicate number n = 4
Method in brief: as §1

CHD5 (PPCC) = settings: sheet "Array Heatmap"; GST-tagged CHD5 (PPCC); arrays performed twice, total replicate number n = 4
Method in brief: as §1

KDM5A (3) = settings: sheet "Array Heatmap"; GST-tagged KDM5A (3); arrays performed twice, total replicate number n = 4
Method in brief: as §1

SP140L = settings: sheet "Array Heatmap"; GST-tagged SP140L; arrays performed twice, total replicate number n = 4
Method in brief: as §1

PHF8 = settings: sheet "Array Heatmap"; GST-tagged PHF8; arrays performed twice, total replicate number n = 4
Method in brief: as §1

RAG2 = settings: sheet "Array Heatmap"; GST-tagged RAG2; arrays performed twice, total replicate number n = 4
Method in brief: as §1

CHD4 (PPCC) = settings: sheet "Array Heatmap"; GST-tagged CHD4 (PPCC); arrays performed twice, total replicate number n = 4
Method in brief: as §1

ING2 = settings: sheet "Array Heatmap"; GST-tagged ING2; arrays performed twice, total replicate number n = 4
Method in brief: as §1

PHF13 = settings: sheet "Array Heatmap"; GST-tagged PHF13; arrays performed twice, total replicate number n = 4
Method in brief: as §1

AIRE (PP) = settings: sheet "Array Heatmap"; GST-tagged AIRE (PP); arrays performed twice, total replicate number n = 4
Method in brief: as §1

KDM5A (1) = settings: sheet "Array Heatmap"; GST-tagged KDM5A (1); arrays performed twice, total replicate number n = 4
Method in brief: as §1

KDM7A = settings: sheet "Array Heatmap"; GST-tagged KDM7A; arrays performed twice, total replicate number n = 4
Method in brief: as §1

PHRF1 (RP) = settings: sheet "Array Heatmap"; GST-tagged PHRF1 (RP); arrays performed twice, total replicate number n = 4
Method in brief: as §1

ING5 = settings: sheet "Array Heatmap"; GST-tagged ING5; arrays performed twice, total replicate number n = 4
Method in brief: as §1

MORC3 (CW) = settings: sheet "Array Heatmap"; GST-tagged MORC3 (CW); arrays performed twice, total replicate number n = 4
Method in brief: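 GST-PHD reader, 0.5 μM, probed on 293-peptide histone array (single/combinatorial PTMs); optimized array protocol; signal = mean ± SD, n = 4.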

PHF2 = settings: sheet "Array Heatmap"; GST-tagged PHF2; arrays performed twice, total replicate number n = 4
Method in brief: as §1

CHD5 (PCC) = settings: sheet "Array Heatmap"; GST-tagged CHD5 (PCC); arrays performed twice, total replicate number n = 4
Method in brief: as §1

BPTF (PB) = settings: sheet "Array Heatmap"; GST-tagged BPTF (PB); arrays performed twice, total replicate number n = 4
Method in brief: as §1

TRIM66 (PB) = settings: sheet "Array Heatmap"; GST-tagged TRIM66 (PB); arrays performed twice, total replicate number n = 4
Method in brief: as §1

KDM4C (TTP) = settings: sheet "Array Heatmap"; GST-tagged KDM4C (TTP); arrays performed twice, total replicate number n = 4
Method in brief: as §1

MLL5 = settings: sheet "Array Heatmap"; GST-tagged MLL5; arrays performed twice, total replicate number n = 4
Method in brief: as §1

DPF2 (PPC2W2) = settings: sheet "Array Heatmap"; GST-tagged DPF2 (PPC2W2); arrays performed twice, total replicate number n = 4
Method in brief: as §1

BAZ2B = settings: sheet "Array Heatmap"; GST-tagged BAZ2B; arrays performed twice, total replicate number n = 4
Method in brief: as §1

ING3 = settings: sheet "Array Heatmap"; GST-tagged ING3; arrays performed twice, total replicate number n = 4
Method in brief: as §1

What does the source list for H3K4ac + K9me1 + K14ac + K18ac: H3 1-20?
Array Heatmap signal, PHF23 (PHF23): 0.4792; Array Heatmap signal, PHF21A (PHF21A): 0.4512; Array Heatmap signal, KDM5B (3) (KDM5B (3)): 0.497; Array Heatmap signal, TAF3 (TAF3): 0.2619; Array Heatmap signal, DIDO1 (DIDO1): 0.5412; Array Heatmap signal, ING1 (ING1): 0.4555; Array Heatmap signal, ING4 (ING4): 0.4584; Array Heatmap signal, KDM5B (1) (KDM5B (1)): 0.6293; Array Heatmap signal, CHD5 (PPCC) (CHD5 (PPCC)): 0.5431; Array Heatmap signal, KDM5A (3) (KDM5A (3)): 0.3935; Array Heatmap signal, SP140L (SP140L): 0.3469; Array Heatmap signal, PHF8 (PHF8): 0.3261; Array Heatmap signal, RAG2 (RAG2): 0.2267; Array Heatmap signal, CHD4 (PPCC) (CHD4 (PPCC)): 0.5629; Array Heatmap signal, ING2 (ING2): 0.5869; Array Heatmap signal, PHF13 (PHF13): 0.5879; Array Heatmap signal, AIRE (PP) (AIRE (PP)): 0.5251; Array Heatmap signal, KDM5A (1) (KDM5A (1)): 0.4805; Array Heatmap signal, KDM7A (KDM7A): 0.4836; Array Heatmap signal, PHRF1 (RP) (PHRF1 (RP)): 0.3692; Array Heatmap signal, ING5 (ING5): 0.3469; Array Heatmap signal, MORC3 (CW) (MORC3 (CW)): 0.3311; Array Heatmap signal, PHF2 (PHF2): 0.368; Array Heatmap signal, CHD5 (PCC) (CHD5 (PCC)): 0.8198; Array Heatmap signal, BPTF (PB) (BPTF (PB)): 0.3424; Array Heatmap signal, TRIM66 (PB) (TRIM66 (PB)): 0.5413; Array Heatmap signal, KDM4C (TTP) (KDM4C (TTP)): 0.5174; Array Heatmap signal, MLL5 (MLL5): 0.5142; Array Heatmap signal, DPF2 (PPC2W2) (DPF2 (PPC2W2)): 0.6154; Array Heatmap signal, BAZ2B (BAZ2B): 0.5783; Array Heatmap signal, ING3 (ING3): 0.4265

H3K4ac + K9me2 + K14ac + K18ac: H3 1-20 was tested. Which “Array Heatmap signal, PHF23” value (PHF23) did it give?
The value was 0.5641.

What about the “Array Heatmap signal, PHF21A” value (PHF21A) of the same substance?
Its value is 0.517.

What about the “Array Heatmap signal, KDM5B (3)” value (KDM5B (3)) of the same substance?
The value was 0.5157.

What about the “Array Heatmap signal, TAF3” value (TAF3) of the same substance?
The value was 0.2754.

What about the “Array Heatmap signal, DIDO1” value (DIDO1) of the same substance?
Its value is 0.6996.

And the “Array Heatmap signal, ING1” value (ING1)?
The value was 0.5602.

And the “Array Heatmap signal, ING4” value (ING4)?
The value was 0.4857.

And the “Array Heatmap signal, KDM5B (1)” value (KDM5B (1))?
Its value is 0.6474.

And the “Array Heatmap signal, CHD5 (PPCC)” value (CHD5 (PPCC))?
Its value is 0.5961.

And the “Array Heatmap signal, KDM5A (3)” value (KDM5A (3))?
Its value is 0.4792.

What about the “Array Heatmap signal, SP140L” value (SP140L) of the same substance?
The value was 0.3786.

And the “Array Heatmap signal, PHF8” value (PHF8)?
The value was 0.3959.

And the “Array Heatmap signal, RAG2” value (RAG2)?
Its value is 0.2604.

And the “Array Heatmap signal, CHD4 (PPCC)” value (CHD4 (PPCC))?
Its value is 0.5924.

What about the “Array Heatmap signal, ING2” value (ING2) of the same substance?
The value was 0.6022.

And the “Array Heatmap signal, PHF13” value (PHF13)?
Its value is 0.6376.

What about the “Array Heatmap signal, AIRE (PP)” value (AIRE (PP)) of the same substance?
The value was 0.5959.

And the “Array Heatmap signal, KDM5A (1)” value (KDM5A (1))?
The value was 0.4994.

And the “Array Heatmap signal, KDM7A” value (KDM7A)?
Its value is 0.3693.

What about the “Array Heatmap signal, PHRF1 (RP)” value (PHRF1 (RP)) of the same substance?
Its value is 0.5426.

And the “Array Heatmap signal, ING5” value (ING5)?
The value was 0.3863.

And the “Array Heatmap signal, MORC3 (CW)” value (MORC3 (CW))?
Its value is 0.4166.

And the “Array Heatmap signal, PHF2” value (PHF2)?
The value was 0.5092.

And the “Array Heatmap signal, CHD5 (PCC)” value (CHD5 (PCC))?
Its value is 0.8289.

What about the “Array Heatmap signal, BPTF (PB)” value (BPTF (PB)) of the same substance?
Its value is 0.3687.

And the “Array Heatmap signal, TRIM66 (PB)” value (TRIM66 (PB))?
Its value is 0.6234.

What about the “Array Heatmap signal, KDM4C (TTP)” value (KDM4C (TTP)) of the same substance?
Its value is 0.5332.

And the “Array Heatmap signal, MLL5” value (MLL5)?
Its value is 0.5581.

What about the “Array Heatmap signal, DPF2 (PPC2W2)” value (DPF2 (PPC2W2)) of the same substance?
Its value is 0.7053.

And the “Array Heatmap signal, BAZ2B” value (BAZ2B)?
Its value is 0.5255.

What about the “Array Heatmap signal, ING3” value (ING3) of the same substance?
Its value is 0.5023.
